Source: patent US11407729B2, “Quinoline and quinazoline compounds and methods of use thereof” (Stingray Therapeutics, Inc., priority 2019, dated 2022)

Assays:
ENPP1 protein [1] = molecular target: T1, ENPP1 protein (Homo sapiens, UniProt P22413); test: Thermal Shift Binding Assay; conditions: 1 μg of ENPP1 protein incubated with 100 μM of drug for 5 minutes; for ΔTm at 100 µM: read-out: Thermal Shift (Δ TmD)
T1 sequence (P22413 1-925): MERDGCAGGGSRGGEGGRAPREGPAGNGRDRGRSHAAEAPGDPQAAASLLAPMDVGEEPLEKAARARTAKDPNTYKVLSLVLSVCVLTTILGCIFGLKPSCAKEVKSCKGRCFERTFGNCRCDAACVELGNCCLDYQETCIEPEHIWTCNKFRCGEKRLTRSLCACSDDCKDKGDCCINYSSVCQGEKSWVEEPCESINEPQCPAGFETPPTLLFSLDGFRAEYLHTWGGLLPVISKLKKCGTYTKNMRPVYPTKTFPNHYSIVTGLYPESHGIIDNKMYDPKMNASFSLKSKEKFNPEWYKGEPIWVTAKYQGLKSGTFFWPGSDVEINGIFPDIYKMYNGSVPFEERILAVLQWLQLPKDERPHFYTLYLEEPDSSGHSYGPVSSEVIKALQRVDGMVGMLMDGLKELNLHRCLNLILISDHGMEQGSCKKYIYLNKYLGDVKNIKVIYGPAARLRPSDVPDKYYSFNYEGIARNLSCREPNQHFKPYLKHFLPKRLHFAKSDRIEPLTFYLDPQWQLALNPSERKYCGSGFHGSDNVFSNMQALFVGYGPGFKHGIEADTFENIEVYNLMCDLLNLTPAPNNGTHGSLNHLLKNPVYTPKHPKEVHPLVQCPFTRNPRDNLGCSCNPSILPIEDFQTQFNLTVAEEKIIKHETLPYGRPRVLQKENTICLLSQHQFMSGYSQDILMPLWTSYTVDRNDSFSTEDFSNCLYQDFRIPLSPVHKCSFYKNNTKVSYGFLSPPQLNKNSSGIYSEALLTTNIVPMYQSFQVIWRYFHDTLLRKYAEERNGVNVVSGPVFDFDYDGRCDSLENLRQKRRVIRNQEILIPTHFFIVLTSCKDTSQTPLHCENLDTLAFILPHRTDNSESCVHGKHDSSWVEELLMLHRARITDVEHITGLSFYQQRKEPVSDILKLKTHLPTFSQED
Protocol: Thermal Shift Binding Assay.
The Thermal Shift Assays were implemented to study thermal stabilization of ENPP1 proteins upon ENPP1 inhibitor or ligand binding. These assays were used extensively on purified ENPP1 protein. In a 384-well plate, 1 μg of ENPP1 protein was incubated with 100 μM of the corresponding drug for 5 minutes. Each well was exposed to increasing temperatures to determine an unfolding temperature of the protein. […] 2′3′ cGAMP was used as a positive control, as it is a substrate of ENPP1.

ENPP1 protein [2] = molecular target: T1, ENPP1 protein; test: ENPP1 Inhibition Assay; type: biochemical; set-up: purchased R&D 6136-EN-010; conditions: substrate Thymidine 5′-monophosphate p-nitrophenol ester; 37° C. for 45 minutes; absorbance at 405 nm
Protocol: 1. ENPP1 Inhibition Assay
An eight point serial dilution of drugs was prepared in 10× in assay buffer with the final assay concentrations starting at 10 μM, 3 μM, 1 μM, 0.3 μM . . . 0 μM. A dilution of DMSO was included as a control. The assay plate was set up as follows with each well in duplicate: 81 μL assay buffer+10 μL ENPP1 inhibitor or DMSO+5 μL Substrate+4 μL Enzyme. Both the enzyme and substrate were added to opposite sides of the well to ensure that there was no interaction until all wells had both components. The plate was then centrifuged gently for 10 seconds, followed by an incubation at 37° C. for 45 minutes.
IC50 values are determined using GraphPad Prism 5 software. The data were entered as an X-Y plot into the software as percent inhibition for each concentration of the drug. The concentration values of the drug were log transformed and the nonlinear regression was carried out using the “sigmoidal dose-response (variable slope)” option within the GraphPad software to model the data and calculate IC50 values.

Row | IC50 (ENPP1 protein [2]) [nM] | ΔTm at 100 µM (ENPP1 protein [1]) [°C] | Molecule | Thermal Shift (Δ TmD) (ENPP1 protein [1])
1 | 5.95 |  | N-(2-(1-(6,7-dimethoxyquinolin-4-yl)piperidin-4-yl)propyl)sulfamoylcarbamate [Compound I-02] | 5.0
2 | 4.55 | 4 | CCC(CNS(N)(=O)=O)C1CCN(c2ccnc3cc(OC)c(OC)cc23)CC1 (centres unmarked) [Compound I-13, N-(2-(1-(6,7-dimethoxyquinolin-4-yl)piperidin-4-yl)butyl)sulfuricdiamide] | 
3 | 5150 | 1.6 | COc1ccc(OC)c(S(=O)(=O)Nc2cnc3ccccc3c2)c1 [Compound I-06, 2,5-dimethoxy-N-(quinolin-3-yl)benzenesulfonamide] | 

Row | Molecule | IC50 (ENPP1 protein [2]) [nM] | ΔTm at 100 µM (ENPP1 protein [1]) [°C] | Thermal Shift (Δ TmD) (ENPP1 protein [1])
4 | N-(2-(1-(6,7-dimethoxyquinazolin-4-yl)piperidin-4-yl)propyl)sulfonamide urea [Compound I-01] | 2.79 |  | 5.5
